Measured values from patent US20230233569A1 (Revolution Medicines, Inc., priority 2020, published 2023).
Read-outs that look alike come from different tables or passages of the source.

Key:
Assay in all cases: Ras-Raf disruption / FRET / MOA assay (BRAF RBD)
Type in all cases: biochemical
KRAS G12D = KRAS G12D (Homo sapiens, UniProt P01116+P62937, G12D); details: with Cyclophilin A
Procedure, shortened: (§1)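 TR-FRET in 25 mM HEPES pH 7.3, 100 mM NaCl, 5 mM MgCl2, 0.1% BSA, 0.002% Tween20 with 25 μM Cyclophilin A, 12.5 nM His6-Ras-GMPPNP, 50 nM GST-BRAF RBD; compound 10-point 3-fold series from 30 μM. After 3 h at 25 °C, Eu anti-His/APC anti-GST added for 1.5 h; IC50 from ratio decrease versus DMSO.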

KRAS G12S = KRAS G12S (Homo sapiens, UniProt P01116+P62937, G12S); details: with Cyclophilin A
KRAS G12S, sequence (P01116 1-169 isoform P01116-2 G12S limits assumed): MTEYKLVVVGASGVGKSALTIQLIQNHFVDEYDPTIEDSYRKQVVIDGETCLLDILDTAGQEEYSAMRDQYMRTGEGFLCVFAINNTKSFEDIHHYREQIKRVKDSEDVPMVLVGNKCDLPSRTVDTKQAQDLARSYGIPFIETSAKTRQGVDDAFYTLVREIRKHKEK
KRAS G12S, sequence (P62937 whole entry): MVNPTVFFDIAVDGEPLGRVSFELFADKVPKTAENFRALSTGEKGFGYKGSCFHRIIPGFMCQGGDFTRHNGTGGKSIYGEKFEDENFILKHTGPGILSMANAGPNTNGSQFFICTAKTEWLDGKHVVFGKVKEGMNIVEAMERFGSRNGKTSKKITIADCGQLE
Procedure, shortened: as §1

KRAS G12V = KRAS G12V (Homo sapiens, UniProt P01116+P62937, G12V); details: with Cyclophilin A
KRAS G12V, sequence (P01116 1-169 isoform P01116-2 G12V limits assumed): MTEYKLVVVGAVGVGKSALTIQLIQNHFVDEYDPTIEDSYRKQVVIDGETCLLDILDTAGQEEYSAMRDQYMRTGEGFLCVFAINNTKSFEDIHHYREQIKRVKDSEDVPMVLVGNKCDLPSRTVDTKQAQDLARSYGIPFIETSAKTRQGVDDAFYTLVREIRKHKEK
KRAS G12V, sequence (P62937 whole entry): as the sequence (P62937 whole entry) above
Procedure, shortened: as §1

KRAS G13C = KRAS G13C (Homo sapiens, UniProt P01116+P62937, G13C); details: with Cyclophilin A
KRAS G13C, sequence (P01116 1-169 isoform P01116-2 G13C limits assumed): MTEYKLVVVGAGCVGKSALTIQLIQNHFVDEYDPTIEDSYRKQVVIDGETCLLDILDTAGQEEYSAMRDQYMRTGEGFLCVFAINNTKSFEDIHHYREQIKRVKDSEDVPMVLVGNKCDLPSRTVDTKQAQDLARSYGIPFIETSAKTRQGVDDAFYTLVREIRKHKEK
KRAS G13C, sequence (P62937 whole entry): as the sequence (P62937 whole entry) above
Procedure, shortened: as §1

KRAS G13D = KRAS G13D (Homo sapiens, UniProt P01116+P62937, G13D); details: with Cyclophilin A
KRAS G13D, sequence (P01116 1-169 isoform P01116-2 G13D limits assumed): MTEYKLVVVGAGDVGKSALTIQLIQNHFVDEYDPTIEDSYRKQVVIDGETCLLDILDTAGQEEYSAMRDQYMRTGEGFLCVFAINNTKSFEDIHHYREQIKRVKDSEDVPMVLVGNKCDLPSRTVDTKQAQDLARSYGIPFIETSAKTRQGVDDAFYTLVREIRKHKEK
KRAS G13D, sequence (P62937 whole entry): as the sequence (P62937 whole entry) above
Procedure, shortened: as §1

KRAS Q61H = KRAS Q61H (Homo sapiens, UniProt P01116+P62937, Q61H)
KRAS Q61H, sequence (P01116 1-169 isoform P01116-2 Q61H limits assumed): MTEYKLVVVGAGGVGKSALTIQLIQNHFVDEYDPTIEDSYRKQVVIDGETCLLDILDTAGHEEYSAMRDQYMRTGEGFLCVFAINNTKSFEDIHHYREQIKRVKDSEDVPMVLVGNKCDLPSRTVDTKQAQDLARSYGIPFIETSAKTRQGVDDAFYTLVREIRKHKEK
KRAS Q61H, sequence (P62937 whole entry): as the sequence (P62937 whole entry) above
Procedure, shortened: as §1

KRAS WT = KRAS WT (Homo sapiens, UniProt P01116+P62937); details: with Cyclophilin A
KRAS WT, sequence (P01116 1-169 isoform P01116-2 limits assumed): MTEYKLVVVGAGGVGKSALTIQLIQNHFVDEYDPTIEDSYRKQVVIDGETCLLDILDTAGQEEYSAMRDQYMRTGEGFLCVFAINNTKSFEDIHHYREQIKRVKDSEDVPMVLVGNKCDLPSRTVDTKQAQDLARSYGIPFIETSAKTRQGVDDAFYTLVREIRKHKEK
KRAS WT, sequence (P62937 whole entry): as the sequence (P62937 whole entry) above
Procedure, shortened: as §1

NRAS G12C = NRAS G12C (Homo sapiens, UniProt P01111+P62937, G12C)
NRAS G12C, sequence (P01111 whole entry G12C): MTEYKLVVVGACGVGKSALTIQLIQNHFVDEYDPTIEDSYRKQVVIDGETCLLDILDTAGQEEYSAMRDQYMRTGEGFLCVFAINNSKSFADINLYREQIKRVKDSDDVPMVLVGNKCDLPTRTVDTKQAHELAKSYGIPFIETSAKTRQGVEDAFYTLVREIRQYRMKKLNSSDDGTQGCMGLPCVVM
NRAS G12C, sequence (P62937 whole entry): as the sequence (P62937 whole entry) above
Procedure, shortened: as §1

NRAS Q61K = NRAS Q61K (Homo sapiens, UniProt P01111+P62937, Q61K)
NRAS Q61K, sequence (P01111 whole entry Q61K): as the sequence (P01111 whole entry G12C) above, with C12G, Q61K counted along it
NRAS Q61K, sequence (P62937 whole entry): as the sequence (P62937 whole entry) above
Procedure, shortened: as §1

NRAS Q61R = NRAS Q61R (Homo sapiens, UniProt P01111+P62937, Q61R)
NRAS Q61R, sequence (P01111 whole entry Q61R): as the sequence (P01111 whole entry G12C) above, with C12G, Q61R counted along it
NRAS Q61R, sequence (P62937 whole entry): as the sequence (P62937 whole entry) above
Procedure, shortened: as §1

NRAS WT = NRAS WT (Homo sapiens, UniProt P01111+P62937)
NRAS WT, sequence (P01111 whole entry): as the sequence (P01111 whole entry G12C) above, with C12G counted along it
NRAS WT, sequence (P62937 whole entry): as the sequence (P62937 whole entry) above
Procedure, shortened: as §1

KRAS G12C = KRAS G12C (Homo sapiens, UniProt P01116+P62937, G12C); details: with Cyclophilin A
KRAS G12C, sequence (P01116 1-169 isoform P01116-2 G12C limits assumed): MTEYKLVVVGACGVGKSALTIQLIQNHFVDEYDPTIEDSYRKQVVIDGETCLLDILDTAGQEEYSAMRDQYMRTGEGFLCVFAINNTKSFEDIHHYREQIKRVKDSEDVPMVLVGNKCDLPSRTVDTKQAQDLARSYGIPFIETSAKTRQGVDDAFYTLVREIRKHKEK
KRAS G12C, sequence (P62937 whole entry): as the sequence (P62937 whole entry) above
Procedure, shortened: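 His6-K-Ras G12C-GMPPNP (12.5 nM), GST-BRAF RBD (50 nM) and tagless Cyclophilin A (25 μM) incubated 3 h at 25 °C with compound (10-point 3-fold series from 30 μM), pH 7.3 HEPES buffer. Anti-His Eu/anti-GST APC added for 1.5 h; decreased TR-FRET ratio vs DMSO gives IC50.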

[1] = KRAS G12D FRET data IC50, Ras-Raf disruption
[2] = KRAS G12S FRET data IC50, Ras-Raf disruption
[3] = KRAS G12V FRET data IC50, Ras-Raf disruption
[4] = KRAS G13C FRET data IC50, Ras-Raf disruption
[5] = KRAS G13D FRET data IC50, Ras-Raf disruption
[6] = KRAS WT FRET data IC50, Ras-Raf disruption
[7] = NRAS G12C FRET data IC50, NRAS G12C
[8] = KRAS G12C FRET data IC50, Ras-Raf disruption
[9] = Ras-Raf disruption, read-out: KRAS G12D FRET data IC50
[10] = Ras-Raf disruption, read-out: KRAS G12S FRET data IC50
[11] = Ras-Raf disruption, read-out: KRAS G12V FRET data IC50
[12] = Ras-Raf disruption, read-out: KRAS G13C FRET data IC50
[13] = Ras-Raf disruption, read-out: KRAS G13D FRET data IC50
[14] = KRAS Q61H, read-out: KRAS Q61H FRET data IC50
[15] = Ras-Raf disruption, read-out: KRAS WT FRET data IC50
[16] = NRAS G12C, read-out: NRAS G12C FRET data IC50
[17] = NRAS Q61K, read-out: NRAS Q61K FRET data IC50
[18] = NRAS Q61R, read-out: NRAS Q61R FRET data IC50
[19] = NRAS WT, read-out: NRAS WT FRET data IC50
[20] = Ras-Raf disruption, read-out: KRAS G12C FRET data IC50

KRAS G12D, sequence (P01116 1-169 isoform P01116-2 G12D limits assumed): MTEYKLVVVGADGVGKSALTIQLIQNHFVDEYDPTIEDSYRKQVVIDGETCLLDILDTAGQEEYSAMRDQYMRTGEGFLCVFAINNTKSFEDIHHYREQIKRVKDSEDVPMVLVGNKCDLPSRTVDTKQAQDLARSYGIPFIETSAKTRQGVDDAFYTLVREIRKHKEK
KRAS G12D, sequence (P62937 whole entry): as the sequence (P62937 whole entry) above

Row | SMILES | IC50 (KRAS G12D; [1]) [nM] | IC50 (KRAS G12S; [2]) [nM] | IC50 (KRAS G12V; [3]) [nM] | IC50 (KRAS G13C; [4]) [nM] | IC50 (KRAS G13D; [5]) [nM] | IC50 (KRAS Q61H) [nM] | IC50 (KRAS WT; [6]) [nM] | IC50 (NRAS G12C; [7]) [nM] | IC50 (KRAS G12D; [9]) [nM] | IC50 (KRAS G12S; [10]) [nM] | IC50 (KRAS G12V; [11]) [nM] | IC50 (KRAS G13C; [12]) [nM] | IC50 (KRAS G13D; [13]) [nM] | IC50 (KRAS Q61H; [14]) [nM] | IC50 (KRAS WT; [15]) [nM] | IC50 (NRAS G12C; [16]) [nM] | IC50 (NRAS Q61K; [17]) [nM] | IC50 (NRAS Q61R; [18]) [nM] | IC50 (NRAS WT; [19]) [nM] | IC50 (KRAS G12C; [20]) [nM] | other results
1 | CCn1c(-c2cccnc2[C@H](C)OC)c2c3cc(ccc31)-c1csc(n1)C[C@H](NC(=O)[C@H](C1CCCC1)N(C)C(=O)CN(C)C(=O)[C@@H]1N[C@@H]1C1CC1)C(=O)N1CCC[C@H](N1)C(=O)OCC(C)(C)C2 [Example 210] | 1000 to 10000 | 1000 to 10000 | 1000 to 10000 | 1000 to 10000 | 1000 to 10000 | 100 to 1000 | 1000 to 10000 | 100 to 1000 |  |  |  |  |  |  |  |  |  |  |  |  | IC50 (NRAS Q61K): 1000 to 10000 nM; IC50 (NRAS Q61R): 1000 to 10000 nM; IC50 (NRAS WT): 1000 to 10000 nM; IC50 (KRAS G12C; [8]): 100 to 1000 nM
2 | CCn1c(-c2cccnc2[C@H](C)OC)c2c3cc(ccc31)-c1cc(O)cc(c1)C[C@H](NC(=O)[C@H](C(C)C)N1CC[C@H](NC(=O)[C@H]3CN3)C1=O)C(=O)N1CCC[C@H](N1)C(=O)OCC(C)(C)C2 [Example 213] | 1000 to 10000 | 100 to 1000 | 100 to 1000 | 10 to 100 | 100 to 1000 | 10 to 100 | 10 to 100 | 10 to 100 |  |  |  |  |  |  |  |  |  |  |  |  | IC50 (NRAS Q61K): 100 to 1000 nM; IC50 (NRAS Q61R): 100 to 1000 nM; IC50 (NRAS WT): 10 to 100 nM; IC50 (KRAS G12C; [8]): 10 to 100 nM
3 | CCn1c(-c2cccnc2[C@H](C)OC)c2c3cc(ccc31)-c1csc(n1)C[C@H](NC(=O)[C@H](C(C)C)N(C)C(=O)N(C)C1CN(C(=O)[C@H]3CN3)C1)C(=O)N1CCC[C@H](N1)C(=O)OCC(C)(C)C2 [Example 220] |  |  |  |  |  |  |  |  | 1000 to 10000 | 100 to 1000 | 100 to 1000 | 100 to 1000 | 100 to 1000 | 10 to 100 | 100 to 1000 | 100 to 1000 | 10 to 100 | 100 to 1000 | 100 to 1000 | 10 to 100 | 
4 | CCn1c(-c2cccnc2[C@H](C)OC)c2c3cc(ccc31)-c1csc(n1)C[C@H](NC(=O)[C@H](C(C)C)N(C)C(=O)N(C)C1CN(C(=O)[C@@H]3CN3)C1)C(=O)N1CCC[C@H](N1)C(=O)OCC(C)(C)C2 [Example 221] |  |  |  |  |  |  |  |  | 1000 to 10000 | 100 to 1000 | 100 to 1000 | 100 to 1000 | 100 to 1000 | 100 to 1000 | 100 to 1000 | 100 to 1000 | 100 to 1000 | 100 to 1000 | 100 to 1000 | 100 to 1000 | 
5 | CCn1c(-c2cc(C3CCN(C)CC3)cnc2[C@H](C)OC)c2c3cc(ccc31)-c1cc(O)cc(c1)C[C@H](NC(=O)[C@H](C1CCCC1)N(C)C(=O)CN(C)C(=O)[C@H]1CN1)C(=O)N1CCC[C@H](N1)C(=O)OCC(C)(C)C2 [Example 230] | 10 to 100 | 10 to 100 | 10 to 100 | < 10 | 10 to 100 | < 10 | 10 to 100 | < 10 |  |  |  |  |  |  |  |  |  |  |  |  | IC50 (NRAS Q61K): 100 to 1000 nM; IC50 (NRAS Q61R): 10 to 100 nM; IC50 (NRAS WT): 10 to 100 nM; IC50 (KRAS G12C; [8]): < 10 nM
6 | CCn1c(-c2cccnc2[C@H](C)OC)c2c3cc(ccc31)-c1csc(n1)C[C@H](NC(=O)[C@H](C(C)C)N(C)C(=O)N1CC[C@H]1CN(C)C(=O)[C@@H]1CN1)C(=O)N1CCC[C@H](N1)C(=O)OCC(C)(C)C2 [Example 235] |  |  |  |  |  |  |  |  | 1000 to 10000 | 1000 to 10000 | 1000 to 10000 | 1000 to 10000 | 1000 to 10000 | 100 to 1000 | 1000 to 10000 | 100 to 1000 | 100 to 1000 | 1000 to 10000 | 1000 to 10000 | 100 to 1000 | 
7 | CCn1c(-c2cccnc2[C@H](C)OC)c2c3cc(ccc31)-c1cc(O)cc(c1)C[C@H](NC(=O)[C@H](C(C)C)N(C)C(=O)[C@H]1CCCN(C(=O)[C@@H]3CN3)C1)C(=O)N1CCC[C@H](N1)C(=O)OCC(C)(C)C2 [Example 236] |  |  |  |  |  |  |  |  | 100 to 1000 | 100 to 1000 | 100 to 1000 | 100 to 1000 | 100 to 1000 | 100 to 1000 | 100 to 1000 | 10 to 100 | 1000 to 10000 | 1000 to 10000 | 100 to 1000 | 10 to 100 | 
8 | CCn1c(-c2cccnc2[C@H](C)OC)c2c3cc(ccc31)-c1cc(O)cc(c1)C[C@H](NC(=O)[C@H](C(C)C)N(C)C(=O)[C@@H]1CCCN(C(=O)[C@@H]3CN3)C1)C(=O)N1CCC[C@H](N1)C(=O)OCC(C)(C)C2 [Example 238] |  |  |  |  |  |  |  |  | 100 to 1000 | 10 to 100 | 100 to 1000 | 10 to 100 | 100 to 1000 | 10 to 100 | 10 to 100 | 10 to 100 | 100 to 1000 | 100 to 1000 | 10 to 100 | 10 to 100 | 
9 | CCn1c(-c2cccnc2[C@H](C)OC)c2c3cc(ccc31)-c1csc(n1)C[C@H](NC(=O)[C@H](C(C)C)N(C)C(=O)N1CCN(C(=O)[C@H]3CN3)[C@@H](C)C1)C(=O)N1CCC[C@H](N1)C(=O)OCC(C)(C)C2 [Example 297] |  |  |  |  |  |  |  |  | 100 to 1000 | 100 to 1000 | 100 to 1000 | 10 to 100 | 100 to 1000 | 10 to 100 | 10 to 100 | 10 to 100 | 10 to 100 | 10 to 100 | 10 to 100 | 10 to 100 | 
10 | CCn1c(-c2cccnc2[C@H](C)OC)c2c3cc(ccc31)-c1csc(n1)C[C@H](NC(=O)[C@H](C(C)C)N(C)C(=O)N1CCN(C(=O)[C@@H]3CN3)[C@@H](C)C1)C(=O)N1CCC[C@H](N1)C(=O)OCC(C)(C)C2 [Example 298] |  |  |  |  |  |  |  |  | 100 to 1000 | 10 to 100 | 100 to 1000 | 100 to 1000 | 100 to 1000 | 10 to 100 | 10 to 100 | 10 to 100 | 10 to 100 | 10 to 100 | 10 to 100 | 10 to 100 | 
